Data taken from patent US7964647B2 (Mutual Pharmaceutical Company, Inc., priority 2007, dated 2011).

Tests used:
clinical = details: human, in vivo, 0.6 mg; for AUC: AUC0-τ, 0.6 mg b.i.d. x 10 days, after last dose (Day 25), healthy adults, N = 13
Method: Subjects received a light breakfast served 60 minutes following dose administration in the morning and the evening dose was administered 90 minutes after an evening meal on Days 15 through 24 only. […] Study periods were separated by a 14-day washout. Following the single dose and the last dose of the multiple dose regimen (beginning on the mornings of Day 1 and Day 25, respectively), blood samples were collected (6 mL each) from each subject within 1 hour prior to dosing and after dose administration at study hours 0.5, 1, 1.5, 2, 3, 4, 6, 8, 10, 12, and 24 (while confined) and 36, 48, 72, and 96 (on an outpatient basis).

[1] = test system: patients with acute gout flare (acute gouty arthritic attack); test: Multicenter, randomized, double-blind, placebo-controlled dose comparison study in acute gout flare: efficacy (target joint pain); assay type: in vivo, human; details: for Difference between treatment groups in mean change from baseline in target joint pain, High vs. Low / Difference between treatment groups in mean change from baseline in target joint pain, High vs. Placebo / Difference between treatment groups in mean change from baseline in target joint pain, Low vs. Placebo / Change from baseline in target joint pain, Mean / Change from baseline in target joint pain, Median / Difference between treatment groups in mean change from baseline in target joint pain score at 24 hours, High vs. Low / Difference between treatment groups in mean change from baseline in target joint pain score at 24 hours, High vs. Placebo / Difference between treatment groups in mean change from baseline in target joint pain score at 24 hours, Low vs. Placebo: LOCF, ITT
Source text: A sufficient number of patients are screened to enroll and randomize 300 patients (100 patients per treatment group) who meet the criteria of the American College of Rheumatology (ACR) for acute arthritis of gout.
Efficacy assessment will be made based on patient and Investigator inputs. Patients will record pain severity and sleep interference on a study diary. The severity of pain for each joint affected by the acute gouty arthritic attack will be rated on an 11-point pain intensity numerical rating scale (PI-NRS) that ranges from 0 (“no pain”) to 10 (“worst possible pain”). […] Investigators will provide clinical assessments in the clinic at all Post-Flare Phase study visits, and at medically necessary intervening visits. For these assessments, each of the patient's joints affected by the acute gouty arthritic attack will be examined and signs and symptoms of inflammation will be rated (erythema [absent, present, or not assessable], swelling [0, “none” to 3, “severe”], and tenderness to touch [0, “none” to 3, “severe”]).
The target joint is identified during data analysis as that joint affected by the acute gout flare with the highest baseline pain score on the patient diary. Ties among maximum joint scores for an individual are resolved by random selection.
The secondary efficacy variables are assessments of magnitude of pain reduction, time to response, time to complete pain relief, and interference with sleep as recorded on patient diaries by the patient. Signs and symptoms of inflammation per Investigator's clinical assessments of the target joint are evaluated. Time to drop out (use of rescue medications) is also evaluated. Investigator global assessment of response to treatment is assessed.
Analyses will also be made on an Evaluable patient population with an Evaluable patient defined as one who, in addition to being included in the PP population, completed the randomized treatment course. The ITT population will be used for the evaluation of safety.
Statistical tests for efficacy analysis are two-tailed with an alpha significance level of 0.05.
The sensitivity to alternate definitions of response (based both on magnitude of reduction from baseline as well as time point) will be evaluated as secondary endpoints. As additional sensitivity analyses, these tests will also be repeated for the PP and Evaluable populations if the sample sizes differ from the overall ITT population by more than 10%.
Change in pain intensity, interference with sleep, time to 50% reduction in pain, and time to complete pain relief will be analyzed as continuous variables using analysis of covariance with study site, treatment group, and site by treatment interaction as independent variables for change in pain intensity and interference with sleep, with baseline score as a covariate. For the Investigator's clinical assessment of inflammation (erythema, swelling, and tenderness to touch) and Investigator's global assessment of response to treatment, the treatment groups will be compared using the Mantel-Haenszel chi-square test stratified on study site.

[2] = 24 hours post first dose, High dose 4.8 mg, N = 52
[3] = 24 hours post first dose, Low dose 1.8 mg, N = 74
[4] = 32 hours post first dose, High dose 4.8 mg, N = 52
[5] = 32 hours post first dose, Low dose 1.8 mg, N = 74
[6] = Early treatment start (within 4 hours)
[7] = Early treatment start (within 4 hours), High dose 4.8 mg
[8] = Early treatment start (within 4 hours), Low dose 1.8 mg
[9] = Hour 24, High dose 4.8 mg, n = 51
[10] = Hour 24, Low dose 1.8 mg, n = 74
[11] = Hour 32, High dose 4.8 mg, n = 51
[12] = Hour 32, Low dose 1.8 mg, n = 74
[13] = Late treatment start (after 4 hours)
[14] = Late treatment start (after 4 hours), High dose 4.8 mg
[15] = Late treatment start (after 4 hours), Low dose 1.8 mg

Structure (SMILES): COc1cc2c(c(OC)c1OC)-c1ccc(OC)c(=O)cc1[C@@H](NC(C)=O)CC2 [Colchicine, (−)-N-[(7S,12aS)-1,2,3,10-tetramethoxy-9-oxo-5,6,7,9-tetrahydrobenzo[a]heptalen-7-yl]-acetamide]
- Tmax (clinical): 1 h
- AUC (clinical; MEAN): 29.1 ng·h/mL
- AUC (clinical; MEDIAN): 28.5 ng·h/mL
- Cmax (clinical; po): 2.71 ng/mL
- half-life (clinical; po): ~5 h
- Difference between treatment groups in mean change from baseline in target joint pain, High vs. Low ([1]; 24 hours post first dose): 0.2
- Difference between treatment groups in mean change from baseline in target joint pain, High vs. Placebo ([1]; 24 hours post first dose): −1.3
- Difference between treatment groups in mean change from baseline in target joint pain, Low vs. Placebo ([1]; 24 hours post first dose): −1.5
- Change from baseline in target joint pain, Mean [1, 2]: −2.0
- Change from baseline in target joint pain, Median [1, 2]: −2.0
- Change from baseline in target joint pain, Mean [1, 3]: −2.2
- Change from baseline in target joint pain, Median [1, 3]: −2.0
- Number (%) of responders, at least a 2-unit reduction in target joint pain score [1, 2]: 18 (34.6) Number (%)
- Number (%) of responders, at least a 2-unit reduction in target joint pain score [1, 3]: 32 (43.2) Number (%)
- Difference between treatment groups in mean change from baseline in target joint pain, High vs. Low ([1]; 32 hours post first dose): 0.1
- Difference between treatment groups in mean change from baseline in target joint pain, High vs. Placebo ([1]; 32 hours post first dose): −1.6
- Difference between treatment groups in mean change from baseline in target joint pain, Low vs. Placebo ([1]; 32 hours post first dose): −1.6
- Change from baseline in target joint pain, Mean [1, 4]: −2.3
- Change from baseline in target joint pain, Median [1, 4]: −2.0
- Change from baseline in target joint pain, Mean [1, 5]: −2.4
- Change from baseline in target joint pain, Median [1, 5]: −2.5
- Number (%) of responders, at least a 2-unit reduction in target joint pain score [1, 4]: 20 (38.5) Number (%)
- Number (%) of responders, at least a 2-unit reduction in target joint pain score [1, 5]: 34 (45.9) Number (%)
- Difference between treatment groups in mean change from baseline in target joint pain score at 24 hours, High vs. Low [1, 6]: 0.2
- Difference between treatment groups in mean change from baseline in target joint pain score at 24 hours, High vs. Placebo [1, 6]: −1.3
- Difference between treatment groups in mean change from baseline in target joint pain score at 24 hours, Low vs. Placebo [1, 6]: −1.5
- Change from baseline in target joint pain score at 24 hours post first dose, Mean [1, 7]: −2.0
- Change from baseline in target joint pain score at 24 hours post first dose, Median [1, 7]: −2.0
- Change from baseline in target joint pain score at 24 hours post first dose, Mean [1, 8]: −2.2
- Change from baseline in target joint pain score at 24 hours post first dose, Median [1, 8]: −2.0
- Number of responders (>=50% reduction in target joint pain score, no rescue medication) at 24 hours post first dose ([1]; High (standard) dose 4.8 mg over 6 h, N = 52, ITT): 17 (32.7) N (%)
- Number (%) of patients using rescue medication up to and including the 24-hour post first dose assessment ([1]; High dose 4.8 mg, N = 52): 18 (34.6) n (%)
- Patients with >=0% improvement in target joint pain score at 24 hours post first dose ([1]; High dose 4.8 mg, N = 52): 52 (100.0%)
- Patients with >=10% improvement in target joint pain score at 24 hours post first dose ([1]; High dose 4.8 mg, N = 52): 32 (61.5%)
- Patients with >=20% improvement in target joint pain score at 24 hours post first dose ([1]; High dose 4.8 mg, N = 52): 29 (55.8%)
- Patients with >=30% improvement in target joint pain score at 24 hours post first dose ([1]; High dose 4.8 mg, N = 52): 21 (40.4%)
- Patients with >=40% improvement in target joint pain score at 24 hours post first dose ([1]; High dose 4.8 mg, N = 52): 21 (40.4%)
- Patients with >=50% improvement in target joint pain score at 24 hours post first dose ([1]; High dose 4.8 mg, N = 52): 19 (36.5%)
- Patients with >=60% improvement in target joint pain score at 24 hours post first dose ([1]; High dose 4.8 mg, N = 52): 15 (28.8%)
- Patients with >=70% improvement in target joint pain score at 24 hours post first dose ([1]; High dose 4.8 mg, N = 52): 10 (19.2%)
- Patients with >=80% improvement in target joint pain score at 24 hours post first dose ([1]; High dose 4.8 mg, N = 52): 9 (17.3%)
- Patients with >=90% improvement in target joint pain score at 24 hours post first dose ([1]; High dose 4.8 mg, N = 52): 6 (11.5%)
- Patients with >=100% improvement in target joint pain score at 24 hours post first dose ([1]; High dose 4.8 mg, N = 52): 6 (11.5%)
- Total Pain Relief (TOTPAR) based on all target joint pain scores, Mean [1, 9]: 20.9
- Total Pain Relief (TOTPAR) based on all target joint pain scores, Median [1, 9]: 11.5
- Total Pain Relief (TOTPAR) based on all target joint pain scores, Mean [1, 10]: 30.5
- Total Pain Relief (TOTPAR) based on all target joint pain scores, Median [1, 10]: 23.0
- Total Pain Relief (TOTPAR) based on all target joint pain scores, Mean [1, 11]: 31.9
- Total Pain Relief (TOTPAR) based on all target joint pain scores, Median [1, 11]: 27.5
- Total Pain Relief (TOTPAR) based on all target joint pain scores, Mean [1, 12]: 45.5
- Total Pain Relief (TOTPAR) based on all target joint pain scores, Median [1, 12]: 34.1
- Difference between treatment groups in mean change from baseline in target joint pain score at 24 hours, High vs. Low [1, 13]: 0.1
- Difference between treatment groups in mean change from baseline in target joint pain score at 24 hours, High vs. Placebo [1, 13]: −1.6
- Difference between treatment groups in mean change from baseline in target joint pain score at 24 hours, Low vs. Placebo [1, 13]: −1.6
- Change from baseline in target joint pain score at 24 hours post first dose, Mean [1, 14]: −2.3
- Change from baseline in target joint pain score at 24 hours post first dose, Median [1, 14]: −2.0
- Change from baseline in target joint pain score at 24 hours post first dose, Mean [1, 15]: −2.4
- Change from baseline in target joint pain score at 24 hours post first dose, Median [1, 15]: −2.5
- Number of responders (>=50% reduction in target joint pain score, no rescue medication) at 24 hours post first dose ([1]; Low dose 1.8 mg over 1 h, N = 74, ITT): 28 (37.8) N (%)
- Number (%) of patients using rescue medication up to and including the 24-hour post first dose assessment ([1]; Low dose 1.8 mg, N = 74): 23 (31.1) n (%)
- Patients with >=0% improvement in target joint pain score at 24 hours post first dose ([1]; Low dose 1.8 mg, N = 74): 74 (100.0%)
- Patients with >=10% improvement in target joint pain score at 24 hours post first dose ([1]; Low dose 1.8 mg, N = 74): 47 (63.5%)
- Patients with >=20% improvement in target joint pain score at 24 hours post first dose ([1]; Low dose 1.8 mg, N = 74): 45 (60.8%)
- Patients with >=30% improvement in target joint pain score at 24 hours post first dose ([1]; Low dose 1.8 mg, N = 74): 39 (52.7%)
- Patients with >=40% improvement in target joint pain score at 24 hours post first dose ([1]; Low dose 1.8 mg, N = 74): 36 (48.6%)
- Patients with >=50% improvement in target joint pain score at 24 hours post first dose ([1]; Low dose 1.8 mg, N = 74): 30 (40.5%)
- Patients with >=60% improvement in target joint pain score at 24 hours post first dose ([1]; Low dose 1.8 mg, N = 74): 24 (32.4%)
- Patients with >=70% improvement in target joint pain score at 24 hours post first dose ([1]; Low dose 1.8 mg, N = 74): 20 (27.0%)
- Patients with >=80% improvement in target joint pain score at 24 hours post first dose ([1]; Low dose 1.8 mg, N = 74): 15 (20.3%)
- Patients with >=90% improvement in target joint pain score at 24 hours post first dose ([1]; Low dose 1.8 mg, N = 74): 9 (12.2%)
- Patients with >=100% improvement in target joint pain score at 24 hours post first dose ([1]; Low dose 1.8 mg, N = 74): 8 (10.8%)
- Patients achieving at least 40% relief at 24 hrs post-first dose, regardless of pain rescue (FIG. 1) ([1]; low dose 1.8 mg): 49%
- Proportion of patients rescued prior to 24 hours ([1]; low dose 1.8 mg): 28.4%
- Proportion of patients with ≧50% pain reduction at 24 hrs without pain rescue ([1]; low dose 1.8 mg): 37.8%
- Proportion of patients rescued prior to 24 hours ([1]; standard dose 4.8 mg): 34.6%
- Proportion of patients with ≧50% pain reduction at 24 hrs without pain rescue ([1]; standard dose 4.8 mg): 32.7%
